For orientation: solubility means the dissolved amount per volume that the medium holds.

In brackets after ≈: the same amount, converted by molar mass. Where two headings read alike, the source gives them in different places.

The values below come from PMC12505254, “PROTAC Enabling Formulation In Vivo: Implications of the Polymeric Carrier Eudragit E PO” (Molecular Pharmaceutics, 2025).

Series [1] in a line: Pharmacokinetic study in mice (K–V i.v./p.o., SDD-V p.o.). It is filed as in vivo, mice (female CD-1). As to conditions: 0.5 mg/kg in K–V. The procedure: To evaluate the in vivo performance of the MS4078 SDD formulation, pharmacokinetic studies in mice were conducted and compared to the corresponding Kolliphor solution vehicle. The API in Kolliphor vehicle (see Section ) and the SDD formulation were given in a single-dose study to female CD-1 mice (Charles River Laboratories, Sulzfeld, Germany). The animals were kept in group housing in conventional cages with elevated grids. Food and water were offered ad libitum to the animals.
The study was carried out at EMD Serono (Billerica, MA, USA). A total of 21 mice (female, CD-1) were divided into groups of 12 and 9 animals. The solution vehicle was prepared according to Section . Doses of 0.5 mg/kg of MS4078 were administered intravenously (dose volume: 5 mL/kg) to 12 animals and blood samples (retro-orbital) were sequentially drawn from 3 animals per sampling point at 0.1, 0.25, 0.5, 1, 2, 6, and 24 h after dosing. 10 mg/kg were administered orally (dose volume: 10 mL/kg) to the second group of 9 animals. After dosing, blood samples from 3 animals per sampling point were sequentially drawn at the time points described above, except for the 0.1 h sampling point. The blood cells were dissevered by centrifugation (2000 g, 5 min). Plasma samples were extracted using a protein precipitation reagent (ACN, 4:1 (V/V)). After the addition of 50 μL methanol, the concentration was determined by LC-MS/MS (generic method, based on tuning data).
Mouse PK studies of the enabling formulation were conducted at Nuvisan GmbH (Grafing, Germany). To determine oral bioavailability of MS4078/SDD, the SDD formulation (dose: 10 mg/kg MS4078) was weighed in, dispersed in a citrate vehicle (see Section ), and administered orally (gavage, dose volume: 10 mL/kg) to three female mice (Crl:CD1(ICR)). […] 50 μL of supernatant were diluted 1:1 with a solution of 0.1% formic acid in water and the concentration of MS4078 was determined by UHPLC-MS/MS (generic method, based on tuning data).
Plasma concentrations were determined for each time point sampled. […]

Series [2] in a line: Solubility of MS4078 in buffer and cFaSSIF types (24 h, 37°C). It is filed as physicochemical. As to conditions: thermodynamic from solid. The procedure: The solubility of MS4078 was evaluated by weighing an excess amount of the compound into vials and adding a prewarmed buffer or cFaSSIF types (cFaSSIF1x , cFaSSIF5 x , and cFaSSIF10x ). The suspension was stirred at 37°C for 24 h at 300 rpm. Samples were withdrawn from the suspension, and centrifuged at 15000 rpm (Mikro 200 R, Hettich, Tuttlingen, Germany) and the supernatant was diluted 1:1 with ACN. The dissolved concentration was determined by ultraperformance liquid chromatography (UHPLC, see Section ). The experiments were carried out in triplicate.
UHPLC analysis of MS4078 is described in detail in a previous publication of our group. In brief, the samples were analyzed at 271 nm using a Waters Acquity H-Class series UHPLC system (Waters Corporation, Eschborn, Germany). A gradient was applied using ACN and water with 0.1% (V/V) trifluoracetic acid as mobile phases. Separation was realized by a Waters Acquity BEH C8 column (2.1 × 50 mm, 1.7 μm).

Series [3] in a line: Two-stage precipitation assay simulating the conditions in mice. The class given is physicochemical. The procedure:
To determine the dissolution and precipitation of both the Kolliphor solution vehicle and the SDD dispersion in citrate vehicle upon the GI passage in vitro, a two-stage precipitation assay was conducted which had been developed internally. Therefore, the Kolliphor vehicle containing MS4078 and the dispersion of the SDD in citrate vehicle were prepared according to the descriptions in Sections and , respectively.
According to McConnell et al., the volume of gastric fluid in mice is about 175 μL. […]
The setup of the two-stage precipitation experiments and an overview of the samples are depicted in Figure and Table . […] The concentration of MS4078 was determined by sampling and UHPLC analysis or the turbidity of the samples was analyzed in-line using the Cary3500 (Agilent, Santa Clara, CA, USA) (Figure D). […] As a first step, the optical density (OD) of the cFaSSIF types, Blank-DM (citrate vehicle/SGF pH 4 mixture without polymer or API) and P-DM (a solution of E PO in citrate vehicle/SGF pH 4 mixture) were measured in a range of 200–800 nm (Figure S2). […]
1 Schematic setup of the two-stage precipitation experiments. […] All samples were centrifuged (15,000 rpm (Mikro 200 R)) for 60 s, and the supernatant was diluted with ACN and analyzed via UHPLC (see Section ). […]

Turning to `Cc1cc(Nc2ncc(Cl)c(Nc3ccccc3S(=O)(=O)C(C)C)n2)c(OC(C)C)cc1C1CCN(CC(=O)NCCNc2cccc3c2C(=O)N(C2CCC(=O)NC2=O)C3=O)CC1` (centres unmarked) [MS4078], the “in vivo total clearance as % mouse liver blood flow” value in series [1] was determined as 20 % mouse liver blood flow. Also, the clearance in series [1] (female, CD-1, mouse, plasma, iv, read-out: in vivo total clearance (converted)) is 20.3 mL/min/kg. In addition, in series [1] (female, CD-1, mouse, plasma, iv, read-out: volume of distribution (Vss)), the Vd turned out to be 1.05 L/kg. Moreover, the solubility at 24 h in series [2] (aqueous buffer, citrate-phosphate buffer pH 5, 37°C, read-out: Solubility) was ~2 µg/mL (≈ 2.19 µM); in series [2] (fassgf or other biorelevant, cFaSSIF5x pH 5, 37°C, read-out: Solubility in 5x concentrated cFaSSIF), ~220 µg/mL (≈ 241 µM); in series [2] (fassif, cFaSSIF1x pH 5, 37°C, read-out: Solubility S(cFaSSIF1x)) it was 78 µg/mL (≈ 85.3 µM). Moreover, in series [3] (SDD-DM transferred to cFaSSIF10x, from the 20 min sampling point), the “Dissolved MS4078 concentration in acceptor compartment maintained until end of experiment” value is 30 µg/mL. Also, the “Dissolved MS4078 concentration in acceptor compartment after phase separation (plateau)” value in series [3] (SDD-DM transferred to cFaSSIF20x) was ~220 µg/mL.
